From ChEMBL document CHEMBL1201862, “PubChem BioAssay data set” (2004)
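48-hour exposure; five concentrations; linearly interpolated endpoints. Here, GI50 denotes the concentration required for 50% inhibition of growth.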 Active and inactive are the calls of the source. No stated cut-off is given here; in the data, active = GI50 up to about 1.1 µM and inactive = higher.

Experiments:
Experiment in all cases: growth of human tumour cells (NCI), 48 h
[1] = system: A498
[2] = system: A549
[3] = system: CCRF-CEM
[4] = system: HCT-116
[5] = system: HCT-15
[6] = system: HOP-92
[7] = system: M14
[8] = system: MOLT-4
[9] = system: Malme-3M
[10] = system: NCI-H23
[11] = system: NCI-H522
[12] = system: SF-539
[13] = system: SN12C
[14] = system: SR
[15] = system: SW-620
[16] = system: U-251
[17] = system: UACC-257
[18] = system: DU-145

| Compound | GI50 [1] | GI50 [2] | GI50 [3] | GI50 [4] | GI50 [5] [µM] | GI50 [6] | GI50 [7] | GI50 [8] | GI50 [9] | GI50 [10] | GI50 [11] | GI50 [12] | GI50 [13] | GI50 [14] | GI50 [15] | GI50 [16] | GI50 [17] | GI50 [18] |
| --- | --- | --- | --- | --- | --- | --- | --- | --- | --- | --- | --- | --- | --- | --- | --- | --- | --- | --- |
| N#CC(C#N)=C(C(C#N)C#N)C(C#N)C#N | > 100 µM (inactive) | > 100 µM (inactive) | > 100 µM (inactive) | > 100 µM (inactive) | > 100 | > 100 µM (inactive) | > 100 µM (inactive) | > 100 µM (inactive) | > 100 µM (inactive) | > 100 µM (inactive) | > 100 µM (inactive) | > 100 µM (inactive) | > 100 µM (inactive) | > 100 µM (inactive) | > 100 µM (inactive) | > 100 µM (inactive) | > 100 µM (inactive) |  |
| Cc1nc2cc(Nc3ccccc3C(=O)O)ccc2s1 | > 100 µM (inactive) | > 100 µM (inactive) | > 100 µM (inactive) | 90.8 µM (inactive) | 63.1 | > 100 µM (inactive) | > 100 µM (inactive) | > 100 µM (inactive) | > 100 µM (inactive) | > 100 µM (inactive) | 75 µM (inactive) | > 100 µM (inactive) | 63.4 µM (inactive) | > 100 µM (inactive) | > 100 µM (inactive) | > 100 µM (inactive) |  |  |
| CCOC(=O)C[C@@]12CCCN[C@]1(C)CCc1ccccc12 | > 100 µM (inactive) | > 100 µM (inactive) | > 100 µM (inactive) | > 100 µM (inactive) | > 100 | 97.1 µM (inactive) | > 100 µM (inactive) | > 100 µM (inactive) | > 100 µM (inactive) | > 100 µM (inactive) | > 100 µM (inactive) | > 100 µM (inactive) | > 100 µM (inactive) | > 100 µM (inactive) | > 100 µM (inactive) | > 100 µM (inactive) |  |  |
| CC(=O)CC(=O)Nc1ccccc1C(F)(F)F | > 100 µM (inactive) | > 100 µM (inactive) | > 100 µM (inactive) | > 100 µM (inactive) | > 100 | > 100 µM (inactive) | > 100 µM (inactive) | > 100 µM (inactive) | > 100 µM (inactive) | > 100 µM (inactive) | > 100 µM (inactive) | > 100 µM (inactive) | > 100 µM (inactive) |  | > 100 µM (inactive) | > 100 µM (inactive) |  |  |
| Cc1ccccc1C(C#N)C(=O)C(=O)Nc1nc([N+](=O)[O-])cs1 (stereo not given) | > 100 µM (inactive) | > 100 µM (inactive) |  | > 100 µM (inactive) | > 100 |  | > 100 µM (inactive) |  | > 100 µM (inactive) | > 100 µM (inactive) | > 100 µM (inactive) | > 100 µM (inactive) | > 100 µM (inactive) |  | > 100 µM (inactive) | > 100 µM (inactive) | > 100 µM (inactive) |  |
| FC(F)(F)c1ccccc1/C=N/C12CC3CC(CC(C3)C1)C2 | > 100 µM (inactive) | > 100 µM (inactive) |  | > 100 µM (inactive) | > 100 |  | > 100 µM (inactive) | > 100 µM (inactive) | > 100 µM (inactive) | > 100 µM (inactive) |  | > 100 µM (inactive) | > 100 µM (inactive) | > 100 µM (inactive) | > 100 µM (inactive) | > 100 µM (inactive) | > 100 µM (inactive) |  |
| CS(=O)(=O)c1ccc(-c2cc(-c3ccc(S(C)(=O)=O)cc3)[n+](-c3cc(-c4ccc(S(C)(=O)=O)cc4)c([O-])c(-c4ccc(S(C)(=O)=O)cc4)c3)c(-c3ccc(S(C)(=O)=O)cc3)c2)cc1 |  | > 100 µM (inactive) | > 100 µM (inactive) | > 100 µM (inactive) | > 100 |  | > 100 µM (inactive) | > 100 µM (inactive) | > 100 µM (inactive) | > 100 µM (inactive) | > 100 µM (inactive) | > 100 µM (inactive) | > 100 µM (inactive) | > 100 µM (inactive) | > 100 µM (inactive) | > 100 µM (inactive) | 56.5 µM (inactive) |  |
| C#CCN(N=O)C(=O)ON1C(=O)CCC1=O | > 100 µM (inactive) | > 100 µM (inactive) | > 100 µM (inactive) | > 100 µM (inactive) | > 100 | > 100 µM (inactive) | > 100 µM (inactive) | > 100 µM (inactive) | > 100 µM (inactive) | > 100 µM (inactive) | > 100 µM (inactive) | > 100 µM (inactive) | > 100 µM (inactive) |  | > 100 µM (inactive) | 74.8 µM (inactive) | > 100 µM (inactive) |  |
| O=C(O)CCC(NC(=O)c1ccc(Nc2nc3ccccc3nc2-c2cccs2)cc1)C(=O)O (stereo not given) | > 100 µM (inactive) | > 100 µM (inactive) | > 100 µM (inactive) | > 100 µM (inactive) | > 100 | > 100 µM (inactive) | > 100 µM (inactive) | > 100 µM (inactive) | > 100 µM (inactive) | > 100 µM (inactive) | > 100 µM (inactive) | > 100 µM (inactive) | > 100 µM (inactive) | > 100 µM (inactive) | > 100 µM (inactive) | > 100 µM (inactive) | > 100 µM (inactive) |  |
| CCc1ccc(Cc2ccc(CC)c(NC(=O)C(=O)C3NC(=S)NC3=O)c2CC)c(CC)c1NC(=O)C(=O)C1NC(=S)NC1=O (stereo not given) | > 100 µM (inactive) | > 100 µM (inactive) | > 100 µM (inactive) | > 100 µM (inactive) | > 100 | 38 µM (inactive) | > 100 µM (inactive) | > 100 µM (inactive) | > 100 µM (inactive) | > 100 µM (inactive) | > 100 µM (inactive) | > 100 µM (inactive) |  |  | > 100 µM (inactive) | > 100 µM (inactive) | > 100 µM (inactive) |  |
| O=S(=O)(c1ccccc1)N1N=C2c3ccccc3CCC[C@H]2C1c1ccccc1 (stereo not given in full) | > 100 µM (inactive) | > 100 µM (inactive) | > 100 µM (inactive) | > 100 µM (inactive) | > 100 | > 100 µM (inactive) | > 100 µM (inactive) | > 87.7 µM (inactive) | > 100 µM (inactive) | > 100 µM (inactive) | > 100 µM (inactive) | > 100 µM (inactive) | > 100 µM (inactive) | 95.7 µM (inactive) | > 100 µM (inactive) | > 100 µM (inactive) | > 100 µM (inactive) |  |
| CCc1ccccc1NC(=O)CCc1nnc(S)[nH]1 | > 100 µM (inactive) | > 100 µM (inactive) | > 100 µM (inactive) | > 100 µM (inactive) | > 100 | > 100 µM (inactive) | > 100 µM (inactive) | > 100 µM (inactive) | > 100 µM (inactive) | > 100 µM (inactive) | > 100 µM (inactive) | > 100 µM (inactive) | > 100 µM (inactive) | > 100 µM (inactive) | > 100 µM (inactive) | > 100 µM (inactive) | > 100 µM (inactive) |  |
| CC1=C(C#N)C(=O)CC(c2ccc(Cl)cc2)N(C)N1 (stereo not given) | > 100 µM (inactive) | > 100 µM (inactive) |  | > 100 µM (inactive) | > 100 | > 100 µM (inactive) | > 100 µM (inactive) | > 100 µM (inactive) | > 100 µM (inactive) | > 100 µM (inactive) | > 100 µM (inactive) |  | > 100 µM (inactive) | > 100 µM (inactive) | > 100 µM (inactive) | > 100 µM (inactive) | > 100 µM (inactive) |  |
| O=C(O)CNS(=O)(=O)c1ccc(NC(=O)c2ccccc2[N+](=O)[O-])cc1 | > 100 µM (inactive) | > 100 µM (inactive) | > 100 µM (inactive) |  | > 100 | > 100 µM (inactive) | > 100 µM (inactive) | > 100 µM (inactive) | > 100 µM (inactive) | > 100 µM (inactive) | > 100 µM (inactive) | > 100 µM (inactive) | > 100 µM (inactive) |  | > 100 µM (inactive) | > 100 µM (inactive) | > 100 µM (inactive) |  |
| CCN(CC)CCSc1c2ccccc2nc2c(OC)ccc(OC)c12 | 13.3 µM (inactive) | 29.3 µM (inactive) | 2.13 µM (inactive) | 3.04 µM (inactive) | 3.15 | 2.36 µM (inactive) | 2.44 µM (inactive) | 1.65 µM (inactive) | > 41.2 µM (inactive) | 14.6 µM (inactive) | 3.26 µM (inactive) |  | 5.73 µM (inactive) | 1.1 µM (active) | 2.08 µM (inactive) | 30.3 µM (inactive) | 3.78 µM (inactive) |  |
| C=CC(C)(C)[C@@]12CC3C(=O)N[C@@H](Cc4ccccc4)C(=O)N3[C@@H]1N(C(C)=O)c1ccccc12 (stereo not given in full) | > 100 µM (inactive) | 74.1 µM (inactive) | 57.1 µM (inactive) | > 100 µM (inactive) | 58.1 | 25.2 µM (inactive) | 57.8 µM (inactive) | 27.4 µM (inactive) | > 100 µM (inactive) | > 100 µM (inactive) |  | > 100 µM (inactive) | 75.3 µM (inactive) | > 100 µM (inactive) | 88.7 µM (inactive) | 93.3 µM (inactive) | 68.4 µM (inactive) |  |
| CC(C)(C)C(=O)Nc1cccc2oc(-c3ccccc3)cc12 | > 100 µM (inactive) | > 100 µM (inactive) | > 100 µM (inactive) |  | > 100 | 56.2 µM (inactive) | > 100 µM (inactive) | 49.7 µM (inactive) |  | > 100 µM (inactive) |  | > 100 µM (inactive) | > 100 µM (inactive) | 88.5 µM (inactive) | > 100 µM (inactive) | > 100 µM (inactive) | > 100 µM (inactive) |  |
| COc1cc(S(=O)(=O)Nc2ccc(-c3csc(N4C(=O)CSC4c4ccccc4O)n3)cc2)ccc1Cl (stereo not given) |  | 61.8 µM (inactive) | 23.3 µM (inactive) | 32.8 µM (inactive) | 58.5 | 29.2 µM (inactive) | 64.3 µM (inactive) | 88.3 µM (inactive) | 42.5 µM (inactive) | 31.5 µM (inactive) | 24.3 µM (inactive) | 34.8 µM (inactive) | 92 µM (inactive) | 54.8 µM (inactive) | 35.2 µM (inactive) |  | 27.7 µM (inactive) | 35.4 µM (inactive) |
